Test results from US20250195510A1, “NOVEL METHODS” (priority 2022, published 2025).

How the values were obtained:
[1] = system: Serum cytokine concentration; assay: Serum cytokine protein (Multiplex MSD V-Plex) after LPS and lumateperone; type: in vivo, mouse
Procedure: All other reagents are obtained in the highest purity available from Sigma-Aldrich (St. Louis, MO) unless otherwise noted. […] Sigma-Aldrich, ref #0127: B8) diluted in 0.9% injectable saline while control group animals receive injections of all vehicles matching the experimental conditions. […] Tissue Collection. […] Rats are euthanized 18 hours after LPS injection for sample collection. Hippocampi from mice and rats are rapidly dissected under RNAse-free conditions and placed in 1.5 mL Eppendorf tubes. When appropriate, samples are snap frozen in liquid nitrogen prior to storage at −80° C. until further analysis. […] Multiplex Assays. […] All samples are run in duplicates or triplicates according to manufacturer instructions and analyzed with MSD Discovery Workbench software (Meso Scale Diagnostics). […] An additional experimental group receiving an injection with lumateperone alone is included as an additional control. Protein concentration is measured using the Multiplex MSD assay V-Plex technology. Results are expressed in pg/mL, except for IL-6, which is measured in ng/mL.

[2] = system: Hippocampal mRNA expression; assay: Hippocampal mRNA (qRT-PCR) after acute restraint stress; type: in vivo, mouse; conditions: restraint stress 2 h + Luma 3 mg/kg IP; control 0, stressed −0.138
Procedure: Quantitative Real-Time PCR. […] Heavy phase-lock gel tubes enabled separation of phases following the addition of 400 μL chloroform to the sample and centrifugation at 12,000 rpm for 10 minutes at room temperature. RNA is extracted using Qiagen Rneasy kit (Qiagen, Hilden, Germany). For cDNA synthesis, 2 μg of total RNA is used (SuperScript IV Reverse Transcriptase; ThermoFisher Scientific, Waltham, MA). The purity and concentration of RNA is measured with a Nanodrop spectrophotometer; the optical density (OD) 260/280 and OD 260/230 are within 1.8-2.3. In the hippocampus, 4 key markers of pro- and anti-inflammatory cytokines and chemokines (Il1b: ID Mm00434228_m1, Tnfa: ID Mm00443258_m1, Il6: ID Mm00446190_m1, and Il10: ID Mm01288386_ml; ThermoFisher Scientific) are initially chosen for analysis (n=5-12 per group). […] Mm00840904_m1). […] All mRNAs are measured by qRT-PCR on ABI Prism 7900HT system using TaqMan Gene Expression Assays. […] The results are shown in Table 4B as relative change in mRNA levels for each cytokine gene (Il1b, Il6, Tnfa, Il10) normalized to the control group using the Dct method: Using similar procedures as described above, serum corticosterone levels and hippocampal Cldn5 mRNA expression are measured as well (corticosterone is measured using a commercial ELISA kit).

Corticosterone = assay: Serum corticosterone (ELISA) after acute restraint stress; type: in vivo, mouse; conditions: restraint stress 2 h + Luma 3 mg/kg IP; control 22.65, stressed 238.5
Procedure: Restraint Stress Protocol.
Using similar procedures as described above, serum corticosterone levels and hippocampal Cldn5 mRNA expression are measured as well (corticosterone is measured using a commercial ELISA kit).

Sprague-Dawley rats = assay: Home cage feeding test (HCFT); type: in vivo, rat; conditions: naïve rats, Luma 1 mg/kg IP days 1 and 3; control 6.0
Text: Novelty Suppressed Feeding Test (NSFT). This test measures consumption of a familiar food in a novel environment, relying on rodents' aversion to eating in a novel environment after a period of food deprivation ([…] and Dulawa, “Identifying fast-onset antidepressants using rodent models,” Mol. Psychiatry 22:656-665 (2017)). Rats are food-deprived overnight and placed in an open field (76.5×76.5×40 cm^3) with a small amount of food pellets (6 pellets total). At the time of the test, rats are exposed to the open field for the first time (novelty) and allowed to explore it for a maximum of 15 minutes under red light. The latency for the animal to approach the food pellets and take its first bite is manually scored. A home cage feeding test (HCFT) is performed afterwards to ensure latency measured in NSFT is not a matter of difference in hunger. A home cage food intake analysis evaluated the amount of food eaten (in grams) over a period of 10 minutes following the end of the entire test session.

## CN1CCN2c3c(cccc31)[C@@H]1CN(CCCC(=O)c3ccc(F)cc3)CC[C@@H]12 [Lumateperone, 4-((6bR,10aS)-3-methyl-2,3,6b,9,10,10a-hexahydro-1H-pyrido[3′,4′: 4,5]pyrrolo[1,2,3-de]quinoxaline-8 (7H)-yl)-1-(4-fluorophenyl)-1-butanone]
[1]; LPS 500 μg/kg + Luma 3 mg/kg, LPS alone 6.27
  Serum IL-1b concentration: 2.69 pg/mL
[1]; LPS 500 μg/kg + Luma 3 mg/kg, LPS alone 14.52
  Serum IL-6 concentration: 1.49 ng/mL
[1]; LPS 500 μg/kg + Luma 3 mg/kg, LPS alone 335.3
  Serum TNF-alpha concentration: 56.33 pg/mL
[1]; LPS 500 μg/kg + Luma 3 mg/kg, LPS alone 980.4
  Serum IL-10 concentration: 1014.3 pg/mL
[1]; Luma 3 mg/kg alone, no LPS, saline only 0.51
  Serum IL-6 concentration: 0.09 ng/mL
[1]; Luma 3 mg/kg alone, no LPS, saline only 1.32
  Serum IL-1b concentration: 1.47 pg/mL
[1]; Luma 3 mg/kg alone, no LPS, saline only 14.08
  Serum TNF-alpha concentration: 9.38 pg/mL
[1]; Luma 3 mg/kg alone, no LPS, saline only 24.80
  Serum IL-10 concentration: 48.93 pg/mL
[2]
  Hippocampal Cldn5 mRNA expression: 0.330
Corticosterone
  Serum concentration Corticosterone: 167.3 ng/mL
Sprague-Dawley rats
  Control HCFT food eaten: 6.0 g
